Data as given in US12076341B2, “Use of apoptotic compensatory proliferation signaling vesicles in tissue repair and wound healing” (Rush University Medical Center, priority 2018, dated 2024).
“Also recorded” adds a separate entry of the source. Where a SMILES comes first, the peptide text is derived from it. The star is where a group is joined. Cbz = O=C(OCc1ccccc1)*; CH2F = FC*

Assays:
Type in all cases: cell-based
Hela cells [1] = experiment: Apoptotic cell death of serum-starved Hela cells by flow cytometry; conditions: Z-VAD pretreatment; 24 h serum starvation
Method: (§1) (FIG. 2A) Hela cells either received 10% serum (Mock) or were induced to undergo apoptosis by serum-starvation in the presence or absence of Z-VAD. 24 h after serum starvation, apoptotic cell death was assessed by flow cytometry and the tabulated results from 3 independent experiments are shown in (FIG. 2B). (*** p<0.001, One-way ANOVA). (FIGS. 2C-21) Supernatants from the indicated cultures were fractionated by differential centrifugation and evaluated for their Crkl-containing microvesicles (ACPSVs) and CPS. (FIG. 2C) ACPSVs in the 16K fraction of apoptotic cells were visualized by DIC. (FIG. 2D) Vesicle size distribution was determined and plotted (Mean size±S.D.=1.76±1.04 μm, n=822). […] (FIG. 2H) The lipid contents of the vesicles in the 16K fractions of the indicated cultures were measured and the tabulated data from 3 experiments are shown. […] (FIG. 2I) Hela cells were treated with 16K fractions of serum-fed healthy (Mock), serum-starved apoptotic (Apop.), or Z-VAD treated serum-starved (Apop.+Z-VAD) and the proliferation levels were determined by cell count 24 h after treatment. […] 24 h after serum starvation, cells were fixed and analyzed by SEM. […] Five hours after vesicle addition, the fractions of mitotic cells, with no vesicle (NV); with ACPSV only (+AC); with apoptotic body only (+AB); or with a combination of vesicles (+Mix) were assessed by SEM. […]

Hela cells [2] = experiment: IF time-lapse videomicroscopy of transfected Hela cells (apoptosis, vesicle formation, compensatory proliferation signaling); conditions: cells pre-treated with Z-VAD prior to transfection
Hela cells [3] = experiment: Proliferation assay by cell counts, adherent Hela cells treated with 16K fraction vesicles; conditions: 16K fraction of Z-VAD treated serum-starved Hela cells; cell count 24 h
Method: Generation and Purification of ACPSVs: 7.5×10^6 cells were cultured in 150 mm^2 flasks (TPP) overnight in 25 mL of indicated media. Next day, cells were induced to undergo intrinsic apoptosis by serum-starvation, extrinsic apoptosis apoptosis by treatment with anti-Fas mAb (abcam-ab11881), or anoikis apoptosis by growing the cells detached from the surface in suspension media in Thermo Scientific Nunclon Sphera plates, in the presence or absence of Z-VAD. 24 to 48 h after induction of apoptosis, culture supernatants from serum-fed healthy (Mock) and apoptotic cells were collected and subjected to differential centrifugation. […] The proliferation-inducing effect associated with each fraction was determined by cell counts after growing recipient cells for 24 h at 37° C. in the presence of 5% CO2, using a hemocytometer after trypsin digestion.
Proliferation Assay. […] The next day at the time of treatment with vesicles, the initial cell number per well (0 h) was determined by trypsin digestion and cell counts using a hemocytometer. […] Proliferation rates were determined blindly by cell counts determination using a hemocytometer.

Hela cells [4] = experiment: Vesicle production in 16K fraction of serum-starved Hela cells (Crkl Western blot, lipid content); conditions: Z-VAD pretreatment; Crkl level and lipid content of 16K fraction
Method: as §1

[5] = test system: human epithelial keratinocytes (HEK); experiment: Anoikis apoptosis, vesicle formation and CPS of HEK cells grown in suspension media; conditions: 60 μm Z-VAD
Method: HEK primary cells also product Crkl-containing vesicles which mediate CPS in other cells. (FIG. 8A) HEK cells were cultured either seeded (Mock) or induced to undergo anoikis apoptosis by culturing them in suspension media in the presence or absence of Z-VAD. (FIGS. 8A-8B) Supernatants from the indicated cultures were fractionated, as in FIG. 2, and their 16K fractions were evaluated for ACPSV production by Western blotting, using Crkl as a marker for vesicles, whose expression from 3 experiments was evaluated by densitometer and plotted below (FIG. 8A) or by lipid content measurements from 3 experiments in FIG. 8B. (n=3, * p≤ 0.05, ** p≤ 0.01, *** p≤ 0.001, one-way ANOVA). (FIG. 8C) ACPSVs in 16K fraction of apoptotic HEK cells were visualized by DIC. Similar to HeLa and B16 cells, vesicles from apoptotic HEK cells were globular and ranged between 1-1.8 micron in diameter. (FIG. 8D) HEK cells were treated with vesicles (16K fractions) harvested from HEK seeded healthy (Mock) cultures, or HEK grown in suspension media (Apop.), or HEK grown in suspension media in the presence of Z-VAD (Apop.+Z-VAD). 24 h after treatment, the proliferation levels were determined by cell counts and the tabulated data from 3 independent experiments were shown as the Mean±S.D. (** p<0.01, *** p≤ 0.001, one-way ANOVA). […]

CC(NC(=O)C(NC(=O)OCc1ccccc1)C(C)C)C(=O)NC(CC(=O)O)C(=O)CF (stereo not drawn) [Z-VAD] (Cbz-Val-Ala-Asp-CH2F; configuration not given here)
apoptosis in serum-starved Hela cells (Hela cells [1]): significantly reduced | ACPSV formation and release from Crkl-GFP transfected Hela cells (Hela cells [2]): inhibits apoptosis and vesicle formation; also recorded: not formed or released | CPS in recipient cells (Hela cells [3]): abrogated | vesicle production in serum-starved cells (Hela cells [4]): significantly reduced | apoptosis in HEK cells grown in suspension media [5]: significantly reduced | vesicle formation and CPS in HEK cells grown in suspension media [5]: prevented
